# pIC50: −log10 of the molar value.
# Target: MCH receptor (Homo sapiens, UniProt Q99705)
# Assay: High throughput functional screening FLIPR/FDSS6000: inhibition of MCH-evoked intracellular Ca2+ changes
# Format: cell-based
# Conditions: class by percent of control at 10^-7 M or IC50
# Procedure, shortened: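 Fluo4 fluorescence (Ex 488 nm, Em 530 nm) tracked MCH-evoked [Ca2+]i transients over 290 s by FLIPR or FDSS. Cells carried a constitutively active, non-endogenous receptor version. Compounds were added 3 min before a 50 nM MCH challenge.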
row,SMILES,class
1,CN(C)c1nc(N[C@H]2CC[C@@H](CNC(=S)Nc3cccc(C(=O)O)c3)CC2)nc2ccccc12 [compound 686],3 (Class 3: The value of percent of control at 10^−7 M was more than 60% or the value of IC50 was more than 200 nM.)
2,CN(C)c1nc(N[C@H]2CC[C@@H](NC(=S)Nc3ccc(Br)cc3F)CC2)nc2ccccc12 [compound 234],3 (Class 3: The value of percent of control at 10^−7 M was more than 60% or the value of IC50 was more than 200 nM.)
3,CCN(CC)CCCNC(=S)N[C@H]1CC[C@@H](Nc2nc(N(C)C)c3ccccc3n2)CC1 [compound 387],3 (Class 3: The value of percent of control at 10^−7 M was more than 60% or the value of IC50 was more than 200 nM.)
4,CCCCCCCOc1ccc(NC(=O)NC[C@H]2CC[C@@H](Nc3nc(N(C)C)c4ccccc4n3)CC2)cc1 [compound 554],3 (Class 3: The value of percent of control at 10^−7 M was more than 60% or the value of IC50 was more than 200 nM.)
5,CN(C)c1nc(N[C@H]2CC[C@@H](CNC(=O)Nc3ccc4c(c3)OCO4)CC2)nc2ccccc12 [compound 519],3 (Class 3: The value of percent of control at 10^−7 M was more than 60% or the value of IC50 was more than 200 nM.)
6,COc1ccc(OC)c(NC(=S)N[C@H]2CC[C@@H](Nc3nc(N(C)C)c4ccccc4n3)CC2)c1 [compound 212],2 (Class 2: The value of percent of control at 10^−7 M was from 40% to 60% or the value of IC50 was from 50 nM to 200 nM.)
7,CN(C)c1nc(N[C@H]2CC[C@@H](NC(=S)Nc3ccc(F)cc3Br)CC2)nc2ccccc12 [compound 383],2 (Class 2: The value of percent of control at 10^−7 M was from 40% to 60% or the value of IC50 was from 50 nM to 200 nM.)
8,"CN(C)c1nc(N[C@H]2CC[C@@H](CNC(=S)Nc3c(F)cc(Br)cc3Br)CC2)nc2ccccc12 [compound 781, N-(2,4-dibromo-6-fluorophenyl)-N′-[(cis-4-{[4-(dimethylamino)quinazolin-2-yl]amino}cyclohexyl)methyl]thiourea]",2 (Class 2: The value of percent of control at 10^−7 M was from 40% to 60% or the value of IC50 was from 50 nM to 200 nM.)
9,COc1cc(NC(=O)NC[C@H]2CC[C@@H](Nc3nc(N(C)C)c4ccccc4n3)CC2)cc(OC)c1 [compound 525],2 (Class 2: The value of percent of control at 10^−7 M was from 40% to 60% or the value of IC50 was from 50 nM to 200 nM.)
10,CCCCOC(=O)c1ccc(NC(=O)NC[C@H]2CC[C@@H](Nc3nc(N(C)C)c4ccccc4n3)CC2)cc1 [compound 535],3 (Class 3: The value of percent of control at 10^−7 M was more than 60% or the value of IC50 was more than 200 nM.)
11,CCc1cccc(NC(=S)NC[C@H]2CC[C@@H](Nc3nc(N(C)C)c4ccccc4n3)CC2)c1 [compound 731],3 (Class 3: The value of percent of control at 10^−7 M was more than 60% or the value of IC50 was more than 200 nM.)
12,CC(C)c1cccc(C(C)C)c1NC(=S)NC[C@H]1CC[C@@H](Nc2nc(N(C)C)c3ccccc3n2)CC1 [compound 675],2 (Class 2: The value of percent of control at 10^−7 M was from 40% to 60% or the value of IC50 was from 50 nM to 200 nM.)
13,CCOC(=O)c1cccc(NC(=S)N[C@H]2CC[C@@H](Nc3nc(N(C)C)c4ccccc4n3)CC2)c1 [compound 306],1 (Class 1: The value of percent of control at 10^−7 M was less than 40% or the value of IC50 was less than 50 nM.)
14,"CC(C)c1cc(Br)c(NC(=O)NC[C@H]2CC[C@@H](Nc3nc(N(C)C)c4ccccc4n3)CC2)c(Br)c1 [compound 759, N-(2,6-dibromo-4-isopropylphenyl)-N′-[(cis-4-{[4-(dimethylamino)quinazolin-2-yl]amino}cyclohexyl)methyl]urea]",2 (Class 2: The value of percent of control at 10^−7 M was from 40% to 60% or the value of IC50 was from 50 nM to 200 nM.)
15,CSc1ccccc1NC(=S)NC[C@H]1CC[C@@H](Nc2nc(N(C)C)c3ccccc3n2)CC1 [compound 630],3 (Class 3: The value of percent of control at 10^−7 M was more than 60% or the value of IC50 was more than 200 nM.)
16,CN(C)c1nc(N[C@H]2CC[C@@H](CNC(=S)NCc3ccc(Cl)cc3Cl)CC2)nc2ccccc12 [compound 718],2 (Class 2: The value of percent of control at 10^−7 M was from 40% to 60% or the value of IC50 was from 50 nM to 200 nM.)
17,COc1ccc(-c2ccccc2)cc1NC(=S)NC[C@H]1CC[C@@H](Nc2nc(N(C)C)c3ccccc3n2)CC1 [compound 603],3 (Class 3: The value of percent of control at 10^−7 M was more than 60% or the value of IC50 was more than 200 nM.)
18,"CN(C)c1nc(N[C@H]2CC[C@@H](CNC(=O)Nc3c(F)cc(Br)cc3F)CC2)nc2ccccc12 [compound 542, N-(4-bromo-2,6-difluorophenyl)-N′-[(cis-4-{[4-(dimethylamino)quinazolin-2-yl]amino}cyclohexyl)methyl]urea]",1 (Class 1: The value of percent of control at 10^−7 M was less than 40% or the value of IC50 was less than 50 nM.)
19,Cc1ccc(NC(=S)NC[C@H]2CC[C@@H](Nc3nc(N(C)C)c4ccccc4n3)CC2)cc1 [compound 621],3 (Class 3: The value of percent of control at 10^−7 M was more than 60% or the value of IC50 was more than 200 nM.)
20,CCCCNC(=S)NC[C@H]1CC[C@@H](Nc2nc(N(C)C)c3ccccc3n2)CC1 [compound 583],3 (Class 3: The value of percent of control at 10^−7 M was more than 60% or the value of IC50 was more than 200 nM.)
21,CN(C)c1nc(N[C@H]2CC[C@@H](CNC(=S)Nc3ccc(Br)cc3F)CC2)nc2ccccc12 [compound 658],3 (Class 3: The value of percent of control at 10^−7 M was more than 60% or the value of IC50 was more than 200 nM.)
22,CN(C)c1nc(N[C@H]2CC[C@@H](NC(=S)Nc3cc(C(F)(F)F)ccc3F)CC2)nc2ccccc12 [compound 217],3 (Class 3: The value of percent of control at 10^−7 M was more than 60% or the value of IC50 was more than 200 nM.)
23,"Cc1cc(C)cc(NC(=S)N[C@H]2CC[C@@H](Nc3nc(N(C)C)c4ccccc4n3)CC2)c1 [compound 260, N-(cis-4-{[4-(dimethylamino)quinazolin-2-yl]amino}cyclohexyl)-N′-(3,5-dimethylphenyl)thiourea]",2 (Class 2: The value of percent of control at 10^−7 M was from 40% to 60% or the value of IC50 was from 50 nM to 200 nM.)

# Same assay, conditions: class by percent of control at 10^-7 M or by IC50; read-out: class
row,SMILES,pIC50
1,"Cc1cc(C)cc(NC(=O)N[C@H]2CC[C@@H](Nc3nc(N(C)C)c4ccccc4n3)CC2)c1 [compound 127, N-(cis-4-{[4-(dimethylamino)quinazolin-2-yl]amino}cyclohexyl)-N′-(3,5-dimethylphenyl)urea]",6.70 to 7.30
2,CN(C)c1nc(N[C@H]2CC[C@@H](NC(=O)Nc3cc(C(F)(F)F)cc(C(F)(F)F)c3)CC2)nc2ccccc12 [compound 8],< 6.70
3,CN(C)c1nc(N[C@H]2CC[C@@H](NC(=O)Oc3cccc(C(F)(F)F)c3)CC2)nc2ccccc12 [compound 849],< 6.70
4,CN(C)c1nc(N[C@H]2CC[C@@H](NC(=S)Nc3ccccc3Br)CC2)nc2ccccc12 [compound 201],< 6.70
5,CCCCNC(=S)N[C@H]1CC[C@@H](Nc2nc(N(C)C)c3ccccc3n2)CC1 [compound 159],< 6.70
6,CC(C)NC(=O)N[C@H]1CC[C@@H](Nc2nc(N(C)C)c3ccccc3n2)CC1 [compound 42],< 6.70

# Same assay, conditions: class by percent of control at 10^−7 M or by IC50; read-out: class
row,SMILES,pIC50
1,"COc1ccc(OCC(=O)N[C@H]2CC[C@@H](Nc3nc(N(C)C)c4ccccc4n3)CC2)cc1 [Example 1080, N-(cis-4-{[4-(dimethylamino)quinazolin-2-yl]amino}cyclohexyl)-2-(4-methoxyphenoxy)acetamide]",> 7.30
2,"CN(C)c1nc(N[C@H]2CC[C@@H](C(=O)NCc3ccc(S(C)(=O)=O)cc3)CC2)nc2ccccc12 [Example 1195, cis-4-{[4-(dimethylamino)quinazolin-2-yl]amino}-N-[4-(methylsulfonyl)benzyl]cyclohexanecarboxamide]",> 7.30
3,"CN(C)c1nc(N[C@H]2CC[C@@H](NCc3ccc(OC(F)(F)F)cc3)C2)nc2ccccc12 [Example 1047, N4,N4-dimethyl-N2-((1S,3R)-3-{[4-(trifluoromethoxy)benzyl]-amino}cyclopentyl)quinazoline-2,4-diamine]",< 6.70
4,"CN(C)c1nc(N[C@H]2CC[C@@H](C(=O)NCc3ccccc3OC(F)F)CC2)nc2ccccc12 [Example 1184, cis-N-[2-(difluoromethoxy)benzyl]-4-{[4-(dimethylamino)quinazolin-2-yl]amino}cyclohexanecarboxamide]",> 7.30
5,"COc1cccc(OC)c1CNC(=O)[C@H]1CC[C@@H](Nc2nc(N(C)C)c3ccccc3n2)CC1 [Example 1188, cis-N-(2,6-dimethoxybenzyl)-4-{[4-(dimethylamino)quinazolin-2-yl]amino}cyclohexanecarboxamide]",> 7.30
6,"CCC(=O)Nc1cccc(C(=O)N[C@H]2CC[C@@H](Nc3nc(N(C)C)c4ccccc4n3)CC2)c1 [Example 1200, N-(cis-4-{[4-(dimethylamino)quinazolin-2-yl]amino}cyclohexyl)-3-(propionylamino)benzamide]",> 7.30
7,"CN(C)c1nc(N[C@H]2CC[C@@H](C(=O)Nc3nc4ccccc4[nH]3)CC2)nc2ccccc12 [Example 1198, cis-N-1H-benzimidazol-2-yl-4-{[4-(dimethylamino)quinazolin-2-yl]amino}cyclohexanecarboxamide]",< 6.70
8,"CN(C)c1nc(N[C@H]2CC[C@@H](CNC(=O)Nc3cc(Cl)ccc3Cl)CC2)nc2ccccc12 [Example 1027, N-(2,5-dichlorophenyl)-N′-[(cis-4-{[4-(dimethylamino)quinazolin-2-yl]amino}cyclohexyl)methyl]urea]",6.70 to 7.30
9,"Cc1ccccc1CNC(=O)[C@H]1CC[C@@H](Nc2nc(N(C)C)c3ccccc3n2)CC1 [Example 1166, cis-4-{[4-(dimethylamino)quinazolin-2-yl]amino}-N-(2-methylbenzyl)cyclohexanecarboxamide]",> 7.30
